The values that follow come from patent publication US10718772B2, “Method of detection of analyte active forms and determination of the ability of substances to bind into analyte active sites” (USTAV ORGANICKE CHEMIE A BIOCHEMIE AKADEMIE VED CR, V.V.I., priority 2014, dated 2020).

The target in data set [1] is T1, CA-IX contained in a cell lysate of line HT-29 (Homo sapiens, UniProt Q16790).
T1 construct: unpurified endogenous CA-IX contained in a cell lysate or in microliter volumes of serum; endogenous in cells; host or cells: HT-29
Description: Bivalent ssCAbis probe assay, CA-IX from HT-29 cell lysate on M75 antibody, qPCR. It is filed as binding. (In general: Quantitative PCR measures a nucleic acid by following its amplification.)
Description: (§1) Following the procedure described in the preceding examples, approximately 80 pg of CA-IX contained in a cell lysate of line HT-29 (used amount of total protein determined by Bradford assay was 1 μg) was immobilized using the M75 antibody.

The target of data set [2] is CA-IX (Homo sapiens, UniProt Q16790, N346D). Nature of the data set: Reference enzyme kinetics of CA-IX (construct without PG domain).
The target in data set [3] is T2, HIV-1 protease (Human immunodeficiency virus type 1 group M subtype B, UniProt P04585).
T2 construct: made in house
Description: ssHIV1 probe assay, HIV-1 protease bound to immobilized polyclonal antibody, qPCR. It is filed as binding.

Data set [4] concerns the target T3, Avi-PSMA (Homo sapiens, UniProt Q04609).
T3 construct: Biotinylated extracellular portion of PSMA (hereinafter called Avi-PSMA) used in the enzyme assay; made in house
Description: Enzyme kinetics of Avi-PSMA (HPLC, cleavage of pteroyl-bis-L-glutamate). The format is biochemical.

For data set [5], the target named is T2, HIV-1 protease. Nature of the data set: HIV-1 protease enzyme kinetics with chromogenic peptide substrate. The format is biochemical.
Data set [6] deals with T2, HIV-1 protease. Description: ssHIV1 probe assay, HIV-1 protease directly adsorbed on solid carrier, qPCR. As to conditions: pH 6.0. It is filed as binding.
Data set [7] has as its target T4, CA-IX from blood serum (Homo sapiens, UniProt Q16790).
T4 construct: unpurified endogenous CA-IX contained in a cell lysate or in microliter volumes of serum; from tissue; host or cells: human blood serum
Description: Bivalent ssCAbis probe assay, CA-IX from blood serum on M75 antibody, qPCR. The format is binding. As to conditions: CA-IX from 1 μl of blood serum.
Description: as §1

For data set [8], the target named is T3, Avi-PSMA. Nature of the data set: PSMA catalytic activity for substrate hydrolysis by dsA3PSMA probe displacement, qPCR. The conditions noted are these: for substrate cleaved during incubation: 40 minutes. The format is biochemical. The protocol: Following the procedure described in section 1i, 20 pg of Avi-PSMA was immobilized to the bottom of the wells via immobilized neutravidin and subsequently incubated with the dsA3PSMA detection probe at a concentration of 35 pmol·l^−1 and simultaneously with various concentrations of the folyl-γ-L-glutamate substrate in the range of 10 nmol·l^−1 to 100 μmol·l^−1 for 40 minutes, and after washing, the amount of bound probe was determined with qPCR. […] At a concentration of 336 nmol·l^−1, 43% was cleaved, corresponding to kcat of 2.3 s^−1 and at a concentration of 1049 nmol·l^−1, 16% was cleaved, corresponding to kcat of 2.6 s^−1. Obtained kcat values are in conformity with the kcat value of 5 s^−1 obtained from enzyme kinetics as described in Section 1c.

[9] abbreviates: first independent experiment, read-out: Ki (1).
The mark [10] stands for this setting: second independent experiment, read-out: Ki (2).
The mark [11] stands for this setting: initial concentration 107 nmol·l^−1.
Where [12] appears, read: initial concentration 336 nmol·l^−1.
Where [13] appears, read: initial concentration 1049 nmol·l^−1.

{C7NH2-Cpd13} = 6-amino-2-(hydroxymethyl)hexyl phosphate carrying Compound 13; {C6NH2-Cpd13} = 6-aminohexyl phosphate carrying Compound 13; {AmHex} = 6-amino-2-(hydroxymethyl)hexyl phosphate

T3 sequence (Q04609 44-750 limits assumed): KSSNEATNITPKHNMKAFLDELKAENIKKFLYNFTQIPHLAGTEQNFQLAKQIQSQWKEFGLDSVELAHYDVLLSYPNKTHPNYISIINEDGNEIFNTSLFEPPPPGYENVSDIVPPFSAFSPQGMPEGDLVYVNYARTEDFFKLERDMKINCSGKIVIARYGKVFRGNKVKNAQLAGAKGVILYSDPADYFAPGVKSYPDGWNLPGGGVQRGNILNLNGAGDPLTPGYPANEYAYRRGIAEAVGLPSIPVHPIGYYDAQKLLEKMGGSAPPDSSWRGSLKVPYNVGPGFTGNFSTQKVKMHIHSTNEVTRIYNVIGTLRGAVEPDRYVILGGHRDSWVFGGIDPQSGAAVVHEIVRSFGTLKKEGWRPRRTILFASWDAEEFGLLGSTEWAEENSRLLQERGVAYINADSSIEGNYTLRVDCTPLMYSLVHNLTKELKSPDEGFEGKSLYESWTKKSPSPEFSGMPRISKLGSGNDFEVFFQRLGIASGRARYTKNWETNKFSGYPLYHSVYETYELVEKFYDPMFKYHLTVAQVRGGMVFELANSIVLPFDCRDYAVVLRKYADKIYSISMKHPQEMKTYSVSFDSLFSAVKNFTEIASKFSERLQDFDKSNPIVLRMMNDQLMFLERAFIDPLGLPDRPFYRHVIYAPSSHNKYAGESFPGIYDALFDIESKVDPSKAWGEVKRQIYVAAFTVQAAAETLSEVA

For `NCCOCCOCCOCCOCCOCCC(=O)NCCCCOc1ccc(NC(=O)Nc2ccc(S(N)(=O)=O)cc2)cc1` [Compound 14, 18-oxo-23-(4-(3-(4-sulfamoylphenyl)ureido)phenoxy)-3,6,9,12,15-pentaoxa-19-azatri-cosan-1-aminium 2,2,2-trifluoroacetate], the Ki in data set [1] (ssCAbis probe, determined in the same way as Table 15, read-out: inhibitory constant) amounted to 300 nM.

On to `NS(=O)(=O)c1ccc(NC(=O)Nc2ccc(OCCCCNC(=O)CCOCCOCCOCCOCCOCCC(=O)ON3C(=O)CCC3=O)cc2)cc1` [Compound 13, 2,5-dioxopyrrolidin-1-yl 19-oxo-24-(4-(3-(4-sulfamoylphenyl)ureido)phenoxy)-4,7,10,13,16-pentaoxa-20-azatetracosan-1-oate], for which the Ki in data set [2] was approximately 400 nM.

Regarding “iqPCR_amino: single-stranded DNA (SEQ ID NO: 1) with 3′-terminal 6-amino-2-(hydroxymethyl)hexyl phosphate modification, no ligand portion (DNA CCTGCCAGTTGAGCATTTTTATCTGCCACCTTCTCCACCAGACAAAAGCTGGAAA; DNA, 3' {AmHex}, backbone not given here)”, the “binding to immobilized HIV-1 protease” value in data set [3] (100 ng of HIV-1 protease) is listed as “no binding was observed”. Besides, in data set [4] (0.5 μmol·l^−1), the “inhibition at the highest concentration used” value is recorded as “no inhibition observed”.

In data set [5], `CC(C)[C@H](NC(=O)CCOCCOCCOCCOCCOCCC(=O)NCCO)C(=O)N[C@@H](Cc1ccccc1)C[C@H](O)[C@H](Cc1ccccc1)NC(=O)OCc1cncs1` [Compound 8, thiazol-5-ylmethyl ((24S,27S,29S,30S)-27-benzyl-1,29-dihydroxy-24-isopropyl-4,22,25-trioxo-31-phenyl-7,10,13,16,19-pentaoxa-3,23,26-triazahentriacontan-30-yl)carbamate] returned a Ki of 2.3 nM.

On to `CCC[C@@]1(CCc2ccccc2)CC(O)=C([C@H](CC)c2cccc(NS(=O)(=O)c3ccc(C(F)(F)F)cn3)c2)C(=O)O1` [tipranavir], for which the Ki in data set [3] is 14 nM; in data set [5], 0.14 nM; in data set [6] (setting [9]), 1.3 nM; in data set [6] (setting [10]), 2.9 nM.

As to `Cc1nc(COc2ccc(C[C@H](NC(=O)O[C@H]3CO[C@H]4OCC[C@H]43)[C@H](O)CN(CC(C)C)S(=O)(=O)c3ccc4c(c3)OCO4)cc2)cs1` [brecanavir], the Ki in data set [3] worked out at 0.41 nM; in data set [5] it was 0.001 nM; in data set [6] (setting [9]) it was 0.04 nM; in data set [6] (setting [10]), 0.05 nM.

Take `Cc1cccc(C)c1OCC(=O)N[C@@H](Cc1ccccc1)[C@@H](O)C[C@H](Cc1ccccc1)NC(=O)[C@H](C(C)C)N1CCCNC1=O` [lopinavir]: the Ki in data set [3] came out at 1.3 nM; in data set [5], 0.018 nM; in data set [6] (setting [9]), 0.18 nM; in data set [6] (setting [10]), 0.41 nM.

Consider `NCCCC[C@H](NC(=O)N[C@@H](CCC(=O)O)C(=O)O)C(=O)O` [PSMA parent compound, S,S-2-[3-[5-amino-1-carboxypentyl]-ureido]-pentanedioic acid], for which the Ki in data set [4] (Avi-PSMA enzyme assay) was found to be 0.2 nM.

As for “ssCAbis: bivalent probe: two molecules of Compound 13 on oligonucleotide SEQ ID NO: 7 (DNA AAACCTGCCAGTTGAGCATTTTTATCTGCCACCTTCTCCACCAGACAAAAGCTGGAAA; 5' {C6NH2-Cpd13}, 3' {C7NH2-Cpd13}, sugars by position and backbone not given here)”, the Kd in data set [7] was 2.2 nM; in data set [1] (HT-29 lysate, HEPESTC′ buffer), 2.1 nM.

In data set [4] (Avi-PSMA, IC50 converted by Cheng-Prusoff, pH 7.4, 37° C.), `O=C(O)CCC(NC(=O)NC(CCCCNC(=O)CCOCCC(=O)NCCO)C(=O)O)C(=O)O` (centres unmarked) [Compound 4, 1-hydroxy-4,10,18-trioxo-7-oxa-3,11,17,19-tetraazadocosane-16,20,22-tricarboxylic acid] had a Ki of 3.3 nM.

As for `COC(=O)N[C@H](C(=O)N[C@@H](Cc1ccccc1)[C@@H](O)CN(Cc1ccc(-c2ccccn2)cc1)NC(=O)[C@@H](NC(=O)OC)C(C)(C)C)C(C)(C)C` [atazanavir], the Ki turned out to be 1.4 nM in data set [3], 0.024 nM in data set [5], 0.11 nM in data set [6] (setting [9]) and 0.18 nM in data set [6] (setting [10]).

As to `Nc1nc2ncc(CNc3ccc(C(=O)N[C@@H](CCC(=O)N[C@@H](CCC(=O)O)C(=O)O)C(=O)O)cc3)nc2c(=O)[nH]1` [folyl-γ-L-glutamate], the kcat (usually the number of substrate molecules converted per active site and unit of time at saturation) in data set [8] (setting [11]) was found to be 1.2 s⁻¹; in data set [8] (setting [12]), 2.3 s⁻¹; in data set [8] (setting [13]), 2.6 s⁻¹. Also, the “substrate cleaved during incubation” value in data set [8] (setting [11]) was found to be 80%; in data set [8] (setting [12]), 43%; in data set [8] (setting [13]) it was 16%. Further, the “kcat from enzyme kinetics” value in data set [4] (as described in Section 1c) came to 5 s⁻¹.
